Measurements reported in paper PMC6874683, “Pyrrothiogatain acts as an inhibitor of GATA family proteins and inhibits Th2 cell differentiation in vitro” (Scientific Reports, 2019).

Columns and labels:
[1] = tested on: Th2 cytokines; experiment: ELISA of cytokine production, naive CD4+ T cells under Th2 conditions; format: cell-based, mouse; conditions: 30 and 80 µM, 5 days
Procedure: (§1) C57BL/6 mice were purchased from Clea (Clea Japan, Inc., Tokyo, Japan). Total CD4^+ T cells isolated from mouse spleen were prepared using a FITC anti-mouse CD4 antibody (Cat#100510, RM4–5, BioLegend) and anti-FITC-microbeads (Cat#130-097-050, Miltenyi Biotec). Naive CD4^+ T cells (CD44^low, CD62L^high) were prepared using a MojoSort Mouse CD4 T cell Isolation Kit (Cat#480033), BioLegend). Biotinylated anti-CD44 (Cat#103004, IM7) and anti-CD25 antibodies (Cat#102004, PC61) were purchased from BioLegend. […]
The CD4^+ T cells cultured for five days were stimulated using an immobilized anti-TCR-β mAb (3 µg/mL, H57–597, BioLegend) for 16 h, and the culture supernatants were recovered. The amount of cytokines in the recovered supernatants was determined with ELISA using the following antibodies and reagents: anti-IL-4 mAb (Cat#554387, BD Biosciences), biotin-anti-IL-4 mAb (Cat#554390, BD Biosciences), anti-IL-5 mAb (Cat#554393, BD Biosciences), biotin-anti-IL-5 mAb (Cat#554397, BD Biosciences), anti-IFN-γ mAb (Cat#551216, BD Biosciences), biotin-anti-IFN-γ mAb (Cat#554410, BD Biosciences), anti-IL-2 mAb (Cat#554424, BD Biosciences), biotin-anti-IL-2 mAb (Cat#554426, BD Biosciences), streptavidin horseradish peroxidase (Cat#434323, Invitrogen), and TMB peroxidase EIA substrate kit (Cat#1721066, BioRad). […]

[2] = tested on: Th1 cell differentiation; experiment: Th1 cell differentiation, naive CD4+ T cells under Th1 conditions; format: cell-based, mouse; conditions: 80 µM, five days
Procedure: as §1, with “BioLegend. CD4^+ T cells (7.5 × 10^5) were stimulated using immobilized anti-TCR-β mAb (3 µg/mL, H57–597, BioLegend) plus an anti-CD28 mAb (1.0 µg/mL, cat#40–0281, TONBO Biosciences) for 2 days, and then, the cells were further expanded under similar conditions for an additional 3 days.” for “BioLegend.”
The in vitro differentiated CD4^+ T cells were stimulated using an immobilized anti-TCR-β mAb (3 µg/ml, H57–597, BioLegend) for 6 h in the presence of monensin (2 µM). […] Flow cytometry was performed using a Gallios Flow Cytometer instrument (Beckman Coulter) and a FACS Caliber instrument (BD Biosciences) and the results were analysed using the FlowJo software program (Tree Star, Ashland, OR, USA). […]
(B) Cytokine production induced in the pyrrothiogatain-treated Th1 cells shown in panel (A) was determined by ELISA.

[3] = target: T1, GATA3 (Homo sapiens, UniProt P23771); experiment: Electrophoretic mobility shift assay (EMSA), GATA3; format: binding; conditions: 50 to 100 µM
T1 construct: we synthesized the recombinant full-length GATA3 protein with an N-terminal FLAG tag using the wheat cell-free system; made in house; host or cells: wheat cell-free protein synthesis system (WEPRO1240 kit)
T1 sequence (P23771 whole entry, species assumed): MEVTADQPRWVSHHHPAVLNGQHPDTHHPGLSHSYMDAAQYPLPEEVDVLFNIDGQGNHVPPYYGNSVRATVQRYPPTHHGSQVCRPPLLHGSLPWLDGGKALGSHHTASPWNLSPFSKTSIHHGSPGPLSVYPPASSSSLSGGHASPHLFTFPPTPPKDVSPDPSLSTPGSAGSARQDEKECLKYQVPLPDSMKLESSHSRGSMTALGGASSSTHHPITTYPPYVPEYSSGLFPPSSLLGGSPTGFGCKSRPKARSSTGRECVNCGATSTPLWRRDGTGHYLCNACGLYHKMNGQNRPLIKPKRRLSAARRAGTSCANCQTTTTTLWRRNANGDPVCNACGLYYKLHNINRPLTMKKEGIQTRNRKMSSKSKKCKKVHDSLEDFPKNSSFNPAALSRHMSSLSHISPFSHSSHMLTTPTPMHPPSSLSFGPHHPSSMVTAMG
Procedure: Electrophoretic mobility shift assays were performed as described previously. In brief, four GATA family proteins (GATA2 to GATA5) were incubated with a ^32P-labelled GATA-binding DNA probe for 20 min at 4 °C in the presence or absence of pyrrothiogatain (0 to 100 µM). The DNA-protein complex was separated from free oligonucleotides on 4% polyacrylamide gels, and then, the ^32P-labelled DNA probes were detected using the Typhoon FLA 7000 (GE Healthcare).

[4] = target: T2, GATA3-SOX4 interaction (Homo sapiens, UniProt P23771); experiment: Immunoprecipitation of GATA3 and SOX4; format: binding; conditions: 0 to 100 µM
T2 construct: we synthesized the recombinant full-length GATA3 protein with an N-terminal FLAG tag using the wheat cell-free system; made in house; host or cells: wheat cell-free protein synthesis system (WEPRO1240 kit), BirA added for biotinylation
T2 sequence (P23771 whole entry): as the sequence (P23771 whole entry, species assumed) above
Procedure: Co-immunoprecipitation analysis of GATA3 and SOX4 was conducted as follows. Immunoprecipitation of FLAG-tagged GATA3 in the presence of pyrrothiogatain (0 to 100 µM) was performed by mixing recombinant FLAG-GATA3 and AGIA-SOX4 with 10 µL of anti-FLAG M2 affinity agarose gel (cat#A2220, Sigma-Aldrich) by rotation at 4 °C for 2 h. The agarose gels were washed three times, and then the immunoprecipitated protein was detected by immunoblotting using anti-FLAG M2 antibody and anti-AGIA-HRP[36].

- Intensity of the shifted bands generated by GATA3-DNA binding [3]: decreased
- GATA3-SOX4 interaction by immunoprecipitation [4]: dose-dependent decrease
Structure (SMILES): Cc1ccc(C)n1-c1ccsc1C(=O)O [Pyrrothiogatain, 3-(2,5-dimethyl-1H-pyrrol-1-yl)thiophene-2-carboxylic acid]
- Production of IL-4, IL-5 and IL-13 (ELISA) [1]: Decreased
- Generation of IFN-γ and IL-2 producing Th1 cells [2]: modestly increased
